From US20200392116A1, “SUBSTITUTED HETEROCYCLES AS c-MYC TARGETING AGENTS” (NORTHWESTERN UNIVERSITY, priority 2019, published 2020)
Like-named read-outs stand apart in the source and are kept apart here.

Legend:
[1] = test system: MYC transcriptional activity (c-Myc E-box-luciferase reporter, MycCap cells); experiment: MYC E-box luciferase reporter assay; type: cell-based; details: Mus musculus, Myc-CaP, read-out: Ebox reporter: IC50
Procedure: To test the compounds, we evaluated the in silico hits in a MYC E-Box luciferase reporter assay to measure the effects of these compounds (referred to as Min-1 to Min-32) on MYC transcriptional activity. […] (See FIG. 2).
MycCap cells stably expressing luciferase with CMV promoter (MycCap-luc) or c-Myc E-box-luciferase reporter (MycCap Ebox-luc) were plated at 10000 cells per well in 96 well white-wall plate. Serial dilutions of 361 were treated next day. At 4 hours of treatment, luminescence signal was determined immediately after adding 150 μg/ml of Luciferin to the well. (See FIG. 12).

CMV reporter = CMV reporter assay (control reporter beside the Ebox reporter); type: cell-based

Compound	IC50 ([1]; given as numeric bound) [µM]	IC50 (CMV reporter) [µM]	IC50 ([1]; class symbols) [µM]
Cn1nc(C(F)(F)F)cc1-c1ccc(OCc2ccc(Cl)cc2)c(-c2ccc(Cl)c(C(F)(F)F)c2)n1 [NUCC-0202640]	> 50	> 50	
Cn1nc(C(F)(F)F)cc1-c1ccc(OCc2ccc(Cl)cc2)c(-c2ccc(Cl)c(C(F)(F)F)c2)c1F [NUCC-0202641]	> 50	> 50	
Cn1nc(-c2cc(Cl)c(OCc3ccc(Cl)cc3)c(-c3ccc(Cl)c(C(F)(F)F)c3)c2O)cc1C(F)(F)F [NUCC-0202642]	> 50	> 50	
Cn1nc(-c2ccc(OCc3ccc(Cl)cc3)cc2O)c(Oc2ccc(Cl)c(F)c2)c1C(F)(F)F [NUCC-0202643]		> 50	< 5
Cn1nc(-c2ccc(OCc3ccc(Cl)cc3)c(-c3ccc(Cl)c(C(F)(F)F)c3)c2O)cc1O [NUCC-0202644]		> 50	10 to 50
Cn1nc(C(F)(F)F)cc1-c1cc(Cl)c(OCc2ccc(Cl)cc2)c(-c2ccc(Cl)c(C(F)(F)F)c2)c1O [NUCC-0202648]		> 50	< 5
Oc1c(-c2cc(C(F)(F)F)n[nH]2)cc(Cl)c(OCc2ccc(Cl)cc2)c1-c1ccc(Cl)c(C(F)(F)F)c1 [NUCC-0202649]		> 50	< 5
Cn1nc(C(F)(F)F)cc1-c1ccc(OCc2ccc(Cl)cc2)c(-c2ccc(Cl)c(C(F)(F)F)c2)c1Cl [NUCC-0202650]	> 50	> 50	
COc1c(C(F)(F)F)nn(C)c1-c1ccc(OCc2ccc(Cl)cc2)cc1O [NUCC-0202651]		> 50	5 to 10
COc1c(-c2ccc(OCc3ccc(Cl)cc3)cc2O)nn(C)c1C(F)(F)F [NUCC-0202652]	> 50	> 50	
Cn1nc(C(F)(F)F)cc1-c1cnc(OCc2ccc(Cl)cc2)c(-c2ccc(Cl)c(C(F)(F)F)c2)c1O [NUCC-0202686]		31	< 5
Oc1c(-c2cc(C(F)(F)F)n[nH]2)cc(F)c(OCc2ccc(Cl)cc2)c1-c1ccc(Cl)c(C(F)(F)F)c1 [NUCC-0202687]		> 50	< 5
Cn1nc(C(F)(F)F)cc1-c1ccc(N(Cc2ccc(Cl)cc2)C(=O)c2cncc(C(F)(F)F)c2)cc1O [NUCC-0202688]		> 50	5 to 10
Cn1nc(-c2ccc(N(Cc3ccc(Cl)cc3)C(=O)c3cncc(C(F)(F)F)c3)cc2O)cc1C(F)(F)F [NUCC-0202689]	> 50	> 50	
Cn1nc(C(F)(F)F)cc1-c1ccc(NC(=O)c2ccc(Cl)c(C(F)(F)F)c2)cc1O [NUCC-0202690]		> 50	< 5
Cn1nc(-c2ccc(NC(=O)c3ccc(Cl)c(C(F)(F)F)c3)cc2O)cc1C(F)(F)F [NUCC-0202691]	> 50	> 50	
Cn1nc(C(F)(F)F)cc1-c1ccc(N(Cc2ccc(Cl)cc2)C(=O)c2cncc(F)c2)cc1O [NUCC-0202692]		> 50	5 to 10
Cn1nc(C(F)(F)F)cc1-c1ccc(N(Cc2ccc(Cl)cc2)C(=O)c2ccc3nccn3c2)cc1O [NUCC-0202693]		> 50	< 5
Cn1nc(-c2ccc(N(Cc3ccc(Cl)cc3)C(=O)c3ccc(Cl)cc3)cc2O)cc1C(F)(F)F [NUCC-0202694]	> 50	> 50	
COc1cccc(C(=O)N(Cc2ccc(Cl)cc2)c2ccc(-c3cc(C(F)(F)F)n(C)n3)c(O)c2)c1 [NUCC-0202695]	> 50	> 50	
Cn1nc(-c2ccc(N(Cc3ccc(Cl)cc3)C(=O)c3ccnc(C(F)(F)F)c3)cc2O)cc1C(F)(F)F [NUCC-0202696]	> 50	> 50	
Cn1nc(-c2ccc(N(Cc3ccc(Cl)cc3)C(=O)c3cncc(F)c3)cc2O)cc1C(F)(F)F [NUCC-0202697]	> 50	> 50	
COc1cccc(C(=O)N(Cc2ccc(Cl)cc2)c2ccc(-c3cc(C(F)(F)F)nn3C)c(O)c2)c1 [NUCC-0202698]		> 50	5 to 10
Cn1nc(-c2ccc(N(Cc3ccc(Cl)cc3)C(=O)c3cccc(Cl)c3)cc2O)cc1C(F)(F)F [NUCC-0202699]	> 50	> 50	
Cn1nc(C(F)(F)F)cc1-c1ccc(N(Cc2ccc(Cl)cc2)C(=O)c2ccnc(C(F)(F)F)c2)cc1O [NUCC-0202700]		> 50	< 5
Cn1nc(-c2ccc(N(Cc3ccc(Cl)cc3)C(=O)c3ccc(F)cc3)cc2O)cc1C(F)(F)F [NUCC-0202701]	> 50	> 50	
Cn1nc(-c2ccc(N(Cc3ccc(Cl)cc3)C(=O)c3ccccc3Cl)cc2O)cc1C(F)(F)F [NUCC-0202702]	> 50	> 50	
Cn1nc(C(F)(F)F)cc1-c1ccc(N(Cc2ccc(Cl)cc2)C(=O)c2ccc(Cl)cc2)cc1O [NUCC-0202703]		> 50	< 5
